From the supplement of paper PMC10307832

What follows are cell lines tested with CC(C)CCN1c2nc(Nc3cc(F)c(O)c(F)c3)ncc2N(C)C(=O)C1C [BI-D1870] + Cc1nc(NC(=O)N2CCC[C@H]2C(N)=O)sc1-c1ccnc(C(C)(C)C(F)(F)F)c1 [Alpelisib] (partner 2 µM) (assay: relative viability (nuclei count vs DMSO), 5 days (fraction); higher = more cells survive). Settings: first compound 4 µM.
Method in brief: (§1)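 Nuclei were stained with Hoechst during a one-step fixation (final 0.05% Triton X-100, 1% formaldehyde, 1 ug/ml Hoechst) carried out 5 days after dosing, then counted on 4× images. The cells, lung cancer lines in 1536-well plates, had been dosed by pin tool the day after seeding with one drug alone or a fixed anchor-drug dose plus five library-drug doses (not always all listed) in √10 steps. Relative viability is the nuclei count in treated wells divided by that in vehicle wells, and each value is the median of duplicate plates.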

| Cell Line | relative viability |
| --- | --- |
| COR-L23 | 0.449 |
| COR-L 105 | 1.05 |
| IA-LM | 0.446 |
| NCI-H2170 | 0.772 |
| A549 | 0.477 |
| HCC-78 | 0.246 |
| NCI-H1299 | 0.993 |
| NCI-H1563 | 0.945 |
| ABC-1 | 0.829 |

Each cell line was assayed with O=c1ncccn1[C@@H]1O[C@H](CO)[C@@H](O)[C@H]1O [Zebularine] + CC(=O)Nc1cccc(-n2c(=O)n(C3CC3)c(=O)c3c(Nc4ccc(I)cc4F)n(C)c(=O)c(C)c32)c1 [Trametinib] (partner 0.02 µM) in the same assay as above. Settings: first compound 1 µM.
Method in brief: as §1

| Cell Line | relative viability |
| --- | --- |
| NCI-H2342 | 0.891 |
| NCI-H727 | 0.385 |
| NCI-H1650 | 0.674 |
| NCI-H1993 | 0.55 |
| SW 1573 | 0.577 |
| NCI-H838 | 0.58 |
| LCLC-103H | 0.727 |
| NCI-H520 | 0.651 |
| NCI-H2126 | 0.532 |
| EMC-BAC-2 | 0.97 |
| NCI-H2085 | 0.491 |
| HCC-366 | 0.425 |
| NCI-H1666 | 0.884 |
| NCI-H596 | 0.853 |
| LK-2 | 0.626 |
| NCI-H2087 | 0.195 |
| NCI-H1648 | 0.628 |
| SK-MES-1 | 0.558 |
| H3255 | 0.635 |
| COR-L23 | 0.642 |
| COR-L 105 | 0.517 |
| ChaGo-K-1 | 0.913 |
| NCI-H2170 | 0.931 |
| NCI-H522 | 0.815 |
| SW 900 | 0.759 |
| HCC-78 | 0.893 |

Same assay, conditions: first compound 3.162 µM

| Cell Line | relative viability |
| --- | --- |
| NCI-H2342 | 0.768 |
| NCI-H727 | 0.35 |
| NCI-H1650 | 0.597 |
| NCI-H1993 | 0.506 |
| SW 1573 | 0.645 |
| NCI-H838 | 0.537 |
| LCLC-103H | 0.672 |
| NCI-H520 | 0.698 |
| NCI-H2126 | 0.561 |
| EMC-BAC-2 | 0.9 |
| NCI-H2085 | 0.547 |
| HCC-366 | 0.402 |
| NCI-H1666 | 0.817 |
| NCI-H596 | 0.904 |
| LK-2 | 0.669 |
| NCI-H2087 | 0.166 |
| NCI-H1648 | 0.469 |
| SK-MES-1 | 0.581 |
| H3255 | 0.65 |
| COR-L23 | 0.602 |
| COR-L 105 | 0.394 |
| ChaGo-K-1 | 0.874 |
| NCI-H2170 | 0.919 |
| NCI-H522 | 0.704 |
| SW 900 | 0.789 |
| HCC-78 | 0.742 |

Same assay, conditions: first compound 10 µM

| Cell Line | relative viability |
| --- | --- |
| NCI-H2342 | 0.751 |
| NCI-H727 | 0.401 |
| NCI-H1650 | 0.399 |
| NCI-H1993 | 0.51 |
| NCI-H838 | 0.415 |
| LCLC-103H | 0.604 |
| NCI-H520 | 0.544 |
| NCI-H2126 | 0.476 |
| EMC-BAC-2 | 0.766 |
| NCI-H2085 | 0.522 |
| HCC-366 | 0.274 |
| NCI-H1666 | 0.699 |
| NCI-H596 | 0.58 |
| LK-2 | 0.476 |
| NCI-H2087 | 0.204 |
| NCI-H1648 | 0.435 |
| SK-MES-1 | 0.491 |
| COR-L23 | 0.463 |
| COR-L 105 | 0.439 |
| ChaGo-K-1 | 0.438 |
| NCI-H2170 | 0.677 |
| NCI-H522 | 0.667 |

Same assay, conditions: first compound 31.62 µM

| Cell Line | relative viability |
| --- | --- |
| NCI-H2342 | 0.756 |
| NCI-H727 | 0.396 |
| NCI-H1650 | 0.9 |
| NCI-H1993 | 0.574 |
| SW 1573 | 0.545 |
| NCI-H838 | 0.437 |
| LCLC-103H | 0.675 |
| NCI-H520 | 0.314 |
| NCI-H2126 | 0.557 |
| EMC-BAC-2 | 0.901 |
| NCI-H2085 | 0.433 |
| HCC-366 | 0.313 |
| NCI-H1666 | 0.865 |
| NCI-H596 | 0.918 |
| LK-2 | 0.459 |
| NCI-H2087 | 0.206 |
| NCI-H1648 | 0.421 |
| SK-MES-1 | 0.503 |
| H3255 | 0.665 |
| COR-L23 | 0.575 |
| COR-L 105 | 0.459 |
| ChaGo-K-1 | 0.246 |
| NCI-H2170 | 0.874 |
| NCI-H522 | 0.758 |
| SW 900 | 0.899 |
| HCC-78 | 0.794 |

Same assay, conditions: first compound 100 µM

| Cell Line | relative viability |
| --- | --- |
| NCI-H2342 | 0.712 |
| NCI-H727 | 0.444 |
| NCI-H1650 | 0.488 |
| NCI-H1993 | 0.367 |
| SW 1573 | 0.61 |
| NCI-H838 | 0.231 |
| LCLC-103H | 0.612 |
| NCI-H520 | 0.229 |
| NCI-H2126 | 0.437 |
| EMC-BAC-2 | 0.941 |
| NCI-H2085 | 0.392 |
| HCC-366 | 0.0973 |
| NCI-H1666 | 0.842 |
| NCI-H596 | 0.774 |
| LK-2 | 0.441 |
| NCI-H2087 | 0.142 |
| NCI-H1648 | 0.419 |
| SK-MES-1 | 0.305 |
| H3255 | 0.599 |
| COR-L23 | 0.241 |
| COR-L 105 | 0.396 |
| ChaGo-K-1 | 0.204 |
